From ChEMBL document CHEMBL2429738, “Synthesis and biological evaluation of biotin conjugates of (±)-(4bS,8aR,10aS)-10a-ethynyl-4b,8,8-trimethyl-3,7-dioxo-3,4b,7,8,8a,9,10,10a-octahydro-phenanthrene-2,6-dicarbonitrile, an activator of the Keap1/Nrf2/ARE pathway, for the isolation of its protein targets” (Bioorg Med Chem Lett, 2013)

Target: NAD(P)H dehydrogenase [quinone] 1 (Mus musculus) (UniProt Q64669)
Assay: Induction of NQO1 activity in mouse Hepa1c1c7 cells assessed as concentration required to double specific enzyme activity after 48 hrs
Assay type: cell-based

Sequence of NAD(P)H dehydrogenase [quinone] 1 (Mus musculus) (Q64669 whole entry): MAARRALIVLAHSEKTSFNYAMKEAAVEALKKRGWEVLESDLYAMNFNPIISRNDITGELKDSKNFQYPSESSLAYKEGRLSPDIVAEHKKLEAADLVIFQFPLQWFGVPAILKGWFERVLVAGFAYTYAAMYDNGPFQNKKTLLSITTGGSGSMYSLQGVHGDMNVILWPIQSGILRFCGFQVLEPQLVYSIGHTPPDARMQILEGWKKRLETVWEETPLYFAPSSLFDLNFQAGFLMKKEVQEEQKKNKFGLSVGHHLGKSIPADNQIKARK

C#C[C@]12C=C(C#N)C(=O)C=C1[C@@]1(C)C=C(C#N)C(=O)C(C)(C)[C@@H]1CC2 (racemic)
CD: 1 nM

C#C[C@]12C=C(C#N)C(=O)C=C1[C@@]1(C)C=C(C#N)C(=O)[C@@](C)(CO)[C@@H]1CC2 (racemic)
CD: 2.2 nM
